The molecules below were run against C-Raf FL (full length CRAF with Y340E and Y341E activating mutations, co-expressed with h14-3-3 zeta) (Homo sapiens (Human), UniProt P04049, Y340E/Y341E) (assay: In vitro Raf activity determination, AlphaScreen p-MEK readout, c-Raf (C-Raf FL)). Details: c-Raf approximately 4 nM, ATP 1 μM, pre-incubation 60 minutes, reaction 1 hour.
Assay type: biochemical
Method in brief: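 Phosphorylation of kinase-dead biotinylated MEK1 (~10 nM) by C-Raf FL (~4 nM) read by AlphaScreen luminescence with anti-phospho-MEK1/2 after EDTA stop. ATP was 1 μM, with a 1 h reaction at room temperature. Compounds were pre-incubated with enzyme and substrate for 60 min in Tris/MgCl2 buffer, pH 7.5.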

Sequence of C-Raf FL (full length CRAF with Y340E and Y341E activating mutations, co-expressed with h14-3-3 zeta) (P04049 whole entry Y340E/Y341E): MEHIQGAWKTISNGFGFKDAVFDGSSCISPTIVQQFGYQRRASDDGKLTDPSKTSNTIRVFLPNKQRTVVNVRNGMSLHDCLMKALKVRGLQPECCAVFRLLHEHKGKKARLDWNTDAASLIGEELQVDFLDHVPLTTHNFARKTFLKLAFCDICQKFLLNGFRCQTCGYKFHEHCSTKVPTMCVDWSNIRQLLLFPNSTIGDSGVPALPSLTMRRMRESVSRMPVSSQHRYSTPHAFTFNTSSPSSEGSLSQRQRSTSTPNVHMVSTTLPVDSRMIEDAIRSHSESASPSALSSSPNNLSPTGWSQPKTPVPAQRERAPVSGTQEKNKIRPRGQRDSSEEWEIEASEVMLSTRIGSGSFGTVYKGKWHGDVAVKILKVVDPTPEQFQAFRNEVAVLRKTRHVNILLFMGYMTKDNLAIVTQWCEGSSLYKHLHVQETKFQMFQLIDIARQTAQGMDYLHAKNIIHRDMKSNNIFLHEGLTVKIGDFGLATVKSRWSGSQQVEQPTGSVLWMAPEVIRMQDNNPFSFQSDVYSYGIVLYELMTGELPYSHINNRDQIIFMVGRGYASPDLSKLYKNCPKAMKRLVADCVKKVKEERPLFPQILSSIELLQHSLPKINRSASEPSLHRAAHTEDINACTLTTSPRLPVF
Sequence of C-Raf FL (full length CRAF with Y340E and Y341E activating mutations, co-expressed with h14-3-3 zeta) (P63104 whole entry partner): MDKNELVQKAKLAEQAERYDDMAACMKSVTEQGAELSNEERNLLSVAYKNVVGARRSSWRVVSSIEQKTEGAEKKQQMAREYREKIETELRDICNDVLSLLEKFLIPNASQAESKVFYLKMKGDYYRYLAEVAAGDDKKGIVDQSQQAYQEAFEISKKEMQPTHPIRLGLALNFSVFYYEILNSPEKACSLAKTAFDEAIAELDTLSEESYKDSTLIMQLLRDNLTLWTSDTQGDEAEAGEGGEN

SMILES | IC50 [nM]
CCN1C[C@H]2COCCN2c2cc(-c3cc(NC(=O)c4ccnc(C(C)(F)F)c4)ccc3C)cnc2C1=O [Example 498, (S)-2-(1,1-difluoroethyl)-N-(3-(6-ethyl-7-oxo-1,2,4a,5,6,7-hexahydro-4H-[1,4]oxazino[4,3-a]pyrido[2,3-f][1,4]diazepin-10-yl)-4-methylphenyl)iso-nicotinamide] | 0.6
CCN1C[C@H]2COCCN2c2cc(-c3cc(NC(=O)c4ccnc(C(F)(F)F)c4F)ccc3C)cnc2C1=O [Example 499, (S)-N-(3-(6-ethyl-7-oxo-1,2,4a,5,6,7-hexahydro-4H-[1,4]oxazino[4,3-a]pyrido[2,3-f][1,4]diazepin-10-yl)-4-methyplhenyl)-3-fluoro-2-(trifluoromethyl)iso-nicotinamide] | 0.4
CCN1C[C@@H]2COCCN2c2cc(-c3cc(NC(=O)c4ccnc(C(F)(F)F)c4)ccc3C)cnc2C1=O [Example 500, (R)-N-(3-(6-ethyl-7-oxo-1,2,4a,5,6,7-hexahydro-4H-[1,4]oxazino[4,3-a]pyrido[2,3-f][1,4]diazepin-10-yl)-4-methylphenyl)-2-(trifluoromethyl)iso-nicotinamide] | 0.1
CCN1C[C@@H]2COCCN2c2cc(-c3cc(NC(=O)c4cccc(C(F)(F)F)c4)cnc3C)cnc2C1=O [Example 501, (R)-N-(5-(6-ethyl-7-oxo-1,2,4a,5,6,7-hexahydro-4H-[1,4]oxazino[4,3-a]pyrido[2,3-f][1,4]diazepin-10-yl)-6-methypyridin-3-yl)-3-(trifluoro-methyl)benzamide] | 0.2
CCN1C[C@@H]2COCCN2c2cc(-c3cc(NC(=O)c4ccnc(C(C)(F)F)c4)ccc3C)cnc2C1=O [Example 502, (R)-2-(1,1-difluoroethyl)-N-(3-(6-ethyl-7-oxo-1,2,4a,5,6,7-hexahydro-4H-[1,4]oxazino[4,3-a]pyrido[2,3-f][1,4]diazepin-10-yl)-4-methylphenyl)iso-nicotinamide] | 0.2
CCN1C[C@@H]2COCCN2c2cc(-c3cc(NC(=O)c4ccnc(C(F)(F)F)c4F)ccc3C)cnc2C1=O [Example 503] | 0.1
CCN1C[C@@H]2CCOCCN2c2cc(-c3cc(NC(=O)c4ccnc(C(F)(F)F)c4)ccc3C)cnc2C1=O [Example 504, (S)-N-(3-(7-ethyl-8-oxo-1,2,4,5,5a,6,7,8-octahydropyrido[2′, 3′:6,7][1,4]diazepino [1,2-d][1,4]oxazepin-11-yl)-4-methylphenyl)-2-(trifluoromethyl)iso-nicotinamide] | 15.4
CCN1C[C@H]2CCOCCN2c2cc(-c3cc(NC(=O)c4ccnc(C(F)(F)F)c4)ccc3C)cnc2C1=O [Example 505, (R)-N-(3-(7-ethyl-8-oxo-1,2,4,5,5a,6,7,8-octahydropyrido[2′, 3′:6,7][1,4]diazepino [1,2-d][1,4]oxazepin-11-yl)-4-methylphenyl)-2-(trifluoromethyl)iso-nicotinamide] | 3.6
CCN1C[C@@H]2CCOCCN2c2cc(-c3cc(NC(=O)c4cccc(C(F)(F)F)c4)cnc3C)cnc2C1=O [Example 506, (S)-N-(5-(7-ethyl-8-oxo-1,2,4,5,5a,6,7,8-octahydropyrido[2′, 3′:6,7][1,4]diazepino [1,2-d][1,4]oxazepin-11-yl)-6-methylpyridin-3-yl)-3-(trifluorometh-yl)benzamide] | 80.3
CCN1C[C@H]2CCOCCN2c2cc(-c3cc(NC(=O)c4cccc(C(F)(F)F)c4)cnc3C)cnc2C1=O [Example 507, (R)-N-(5-(7-ethyl-8-oxo-1,2,4,5,5a,6,7,8-octahydropyrido[2′, 3′:6,7][1,4]diazepino [1,2-d][1,4]oxazepin-11-yl)-6-methylpyridin-3-yl)-3-(trifluorometh-yl)benzamide] | 26.9
Cc1ccc(NC(=O)c2ccnc(C(F)(F)F)c2)cc1-c1cnc2c(c1)N1CCOC[C@H]1C[C@H]2OCCO [Example 508, N-(3-((4aR,6R)-6-(2-hydroxyethoxy)-1,2,4,4a,5,6-hexahydro-[1,4]oxazino[4,3-a][1,5]naphthyridin-9-yl)-4-methylphenyl)-2-(trifluoromethyl)iso-nicotinamide] | 0.2
Cc1ccc(NC(=O)c2ccnc(C(F)(F)F)c2)cc1-c1cnc2c(c1)N1CCOC[C@@H]1C[C@@H]2OCCO [Example 509, N-(3-((4aS,6S)-6-(2-hydroxyethoxy)-1,2,4,4a,5,6-hexahydro-[1,4]oxazino[4,3-a][1,5]naphthyridin-9-yl)-4-methylphenyl)-2-(trifluorometh-yl)isonicotinamide] | 0.2
Cc1ccc(NC(=O)c2ccnc(C(F)(F)F)c2F)cc1-c1cnc2c(c1)N1CCOC[C@H]1C[C@H]2OCCO [Example 510, 3-fluoro-N-(3-((4aR,6R)-6-(2-hydroxyethoxy)-1,2,4,4a,5,6-hexahydro-[1,4]oxazino[4,3-a][1,5]naphthyridin-9-yl)-4-methylphenyl)-2-(trifluoromethyl)iso-nicotinamide] | 0.1
Cc1ccc(NC(=O)c2ccnc(C(C)(C)F)c2)cc1-c1cnc2c(c1)N1CCOC[C@H]1C[C@H]2OCCO [Example 511, 2-(2-fluoropropan-2-yl)-N-(3-((4aR,6R)-6-(2-hydroxyethoxy)-1,2,4,4a,5,6-hexahydro-[1,4]oxazino[4,3-a][1,5]naphthyridin-9-yl)-4-methylphenyl)iso-nicotinamide] | 0.2
Cc1ccc(NC(=O)c2cnnc(C(F)(F)F)c2)cc1-c1cnc2c(c1)N1CCOC[C@H]1C[C@H]2OCCO [Example 512, N-(3-((4aR,6R)-6-(2-hydroxyethoxy)-1,2,4,4a,5,6-hexahydro-[1,4]oxazino[4,3-a][1,5]naphthyridin-9-yl)-4-methylphenyl)-6-(trifluorometh-yl)pyridazine-4-carboxamide] | 0.4
Cc1ccc(NC(=O)c2ccnc(C(C)(F)F)c2)cc1-c1cnc2c(c1)N1CCOC[C@H]1C[C@H]2OCCO [Example 513, 2-(1,1-difluoroethyl)-N-(3-((4aR,6R)-6-(2-hydroxyethoxy)-1,2,4,4a,5,6-hexahydro-[1,4]oxazino[4,3-a][1,5]naphthyridin-9-yl)-4-methylphenyl)iso-nicotinamide] | 0.1
Cc1ncc(NC(=O)c2cccc(C(F)(F)F)c2)cc1-c1cnc2c(c1)N1CCOC[C@H]1C[C@H]2OCCO [Example 514, N-(5-((4aR,6R)-6-(2-hydroxyethoxy)-1,2,4,4a,5,6-hexahydro-[1,4]oxazino[4,3-a][1,5]naphthyridin-9-yl)-6-methylpyridin-3-yl)-3-(trifluorometh-yl)benzamide] | 0.4
Cc1ccc(NC(=O)c2ccnc(C(C)(F)F)c2)cc1-c1cnc2c(c1)N1CCOC[C@H]1[C@@](C#N)(CF)C2 [Example 515, N-(3-((4aR,5S)-5-cyano-5-(fluoromethyl)-1,2,4,4a,5,6-hexahydro-[1,4]oxazino[4,3-a][1,5]naphthyridin-9-yl)-4-methylphenyl)-2-(1,1-difluoroethyl)iso-nicotinamide] | 0.1
Cc1ccc(NC(=O)c2ccnc(C(C)(F)F)c2)cc1-c1cnc2c(c1)N1CCOC[C@@H]1[C@](C#N)(CF)C2 [Example 516, N-(3-((4aS,5R)-5-cyano-5-(fluoromethyl)-1,2,4,4a,5,6-hexahydro-[1,4]oxazino[4,3-a][1,5]naphthyridin-9-yl)-4-methylphenyl)-2-(1,1-difluoroethyl)iso-nicotinamide] | 0.1

Source: US10377770B2 (Novartis AG, priority 2015, dated 2019)
